Literature values in US20060210638A1, “Injectable compositions of nanoparticulate immunosuppressive compounds” (Elan Pharma International Limited, priority 2005, published 2006).
Read-outs that look alike come from different tables or passages of the source.

Columns and labels:
[1] = reputed
[2] = for mean clearance: IV administration
[3] = for reduction of mean AUC relative to fasted / reduction of mean Cmax relative to fasted: healthy volunteers (N=16)
[4] = not given; remark: listed apart in the source
[5] = not given; remark: listed apart in the source
[6] = in vitro studies
[7] = for mean time-to-peak concentration (Tmax): Rapamune Oral Solution
[8] = 11 liver transplant patients, 15 minutes after high fat (400 kcal, 34% fat) breakfast
[9] = given immediately following the meal
[10] = high-carbohydrate meal (668 kcal, 85% carbohydrate)
[11] = high-fat meal (848 kcal, 46% fat), 15 healthy volunteers

For C=CC[C@@H]1/C=C(\C)C[C@H](C)C[C@H](OC)[C@H]2O[C@@](O)(C(=O)C(=O)N3CCCC[C@H]3C(=O)O[C@H](/C(C)=C/[C@@H]3CC[C@@H](O)[C@H](OC)C3)[C@H](C)[C@@H](O)CC1=O)[C@H](C)C[C@@H]2OC [Tacrolimus], the “effectiveness relative to cyclosporine” value [1] is listed as 100 times, the “correlation coefficient of trough concentration (Cmin) with AUC” value ([2]; 18 kidney transplant patients, trough 3 to 30 ng/mL at 10-12 hours post-dose) is listed as 0.93 and the “correlation coefficient of trough concentration (Cmin) with AUC” value ([2]; 24 liver transplant patients, concentration range 10 to 60 ng/mL) is listed as 0.94. For the same compound, the mean clearance ([2]; adult kidney transplant patients) was 1.38 mL/min/kg, the mean clearance ([2]; adult liver transplant patients) was 0.883 mL/min/kg and the mean clearance ([2]; healthy volunteers) was 0.667 mL/min/kg. The “dose excreted unchanged in urine” value ([2]; in man) was “less than 1%”, the “ratio of whole blood concentration to plasma concentration, average” value (U.S. study) was 35 and the plasma protein binding (independent of concentration over 5-50 ng/mL) was “approximately 99%”. For the same compound, the “decreased AUC compared to fasted state” value [3, 8] was 27±18%, the “decreased Cmax compared to fasted state” value [3, 8] was 50±19% and the “reduction of mean AUC relative to fasted” value ([3]; 1.5 hours following the meal) was 39%. The “reduction of mean Cmax relative to fasted” value ([3]; 1.5 hours following the meal) was 63%, the “reduction of mean AUC relative to fasted” value [3, 9] was 39% and the “reduction of mean Cmax relative to fasted” value [3, 9] was 71%. The “decrease of mean AUC” value [3, 10] was 28%, the “decrease of mean Cmax” value [3, 10] was 65% and the Tmax lengthened [3, 11] was 5 fold. For the same compound, the “decrease of mean AUC” value [3, 11] was 37%, the “decrease of mean Cmax” value [3, 11] was 77% and the “solubility in ethanol (in words)” value ([4]; ethanol) was “freely soluble”. The “solubility in methanol and chloroform (in words)” value ([4]; methanol and chloroform) was “very soluble”, the “solubility in water (in words)” value ([4]; water) was “practically insoluble” and the clearance of tacrolimus ([5]; IV) was 0.483 ± 0.15 mL/min/kg. For the same compound, the “elimination half-life based on tacrolimus concentrations” value ([5]; IV) was 43.5 ± 11.6 h, the fecal elimination ([5]; IV) was 92.4±1.0% and the “mean recovery of radiolabel” value ([5]; IV, 6 healthy volunteers) was 77.8±12.7%. The clearance of tacrolimus ([5]; oral) was 2.87 ± 1.47 mL/min/kg, the “elimination half-life based on tacrolimus concentrations” value ([5]; oral) was 48.4 ± 12.3 h and the fecal elimination ([5]; oral) was 92.6±30.7%. The “mean recovery of the radiolabel” value ([5]; oral) was 94.9±30.7% and the urinary elimination ([5]; oral) was 2.3±1.1%.
In the case of C=CCC1C=C(C)CC(C)CC(OC)C2OC(O)(C(=O)C(=O)N3CCCCC3C(=O)OC(C(C)=CC3CCC(O)C(O)C3)C(C)C(O)CC1=O)C(C)CC2OC (stereo not shown) [31-demethyl metabolite], the “activity relative to tacrolimus (in words)” value [6] is given as “same activity as tacrolimus”.
In the case of CO[C@H]1C[C@@H]2CC[C@@H](C)[C@@](O)(O2)C(=O)C(=O)N2CCCC[C@H]2C(=O)O[C@H]([C@H](C)C[C@@H]2CC[C@@H](O)[C@H](OC)C2)CC(=O)[C@H](C)/C=C(\C)[C@@H](O)[C@@H](OC)C(=O)[C@H](C)C[C@H](C)/C=C/C=C/C=C/1C [Sirolimus, (3S,6R,7E,9R,10R,12R,14S,15E,17E,19E,21S,23S,26R,27R ,34aS)-9,10,12,13,14,21,22,23,24,25,26,27,32,33,34,34a-hexadecahydro-9,27-dihydroxy-3-[(1 R )-2-[(1S,3R,4R)-4-hydroxy-3-methoxycyclohexyl]-1-methylethyl]-10,21-dimethoxy-6,8,12,14,20,26-hexamethyl-23,27-epoxy-3H-pyrido[2,1-c] [1,4] oxaazacyclohentriacontine-1,5,11,28,29(4H,6H,31H)-pentone], the “stability when exposed to water (in words)” value ([4]; aqueous medium) is listed as “rapidly hydrolyzes”, the “solubility in benzyl alcohol, chloroform, acetone, and acetonitrile (in words)” value ([4]; benzyl alcohol, chloroform, acetone, acetonitrile) is listed as “freely soluble” and the solubility in water ([4]; water) is listed as 20 micrograms per mL. For the same compound, the “solubility in water (in words)” value ([4]; water) was “insoluble”, the “mean time-to-peak concentration (Tmax)” value ([7]; multiple oral doses, renal transplant recipients) was “approximately 2 hours” and the “mean time-to-peak concentration (Tmax)” value ([7]; single dose, healthy subjects) was “approximately 1 hour”. The systemic availability ([7]; after Rapamune Oral Solution) was “approximately 14%”.
